From US11066414B2, “Cot modulators and methods of use thereof” (Gilead Sciences, Inc., priority 2015, dated 2021)
Where two headings read alike, the source gives them in different places.

Key:
TNFα = assay: Cot Monocyte TNFα Cell Based Assay
Human Cot = Human Cot (Homo sapiens (Human), UniProt P41279); assay: High Throughput Cot Biochemical Assay
[1] = read-out: EC50 TNF, LPS-stimulated human monocytes, TNFα
[2] = read-out: IC50 HTRF, Cot HTRF (TR-FRET) biochemical assay
[3] = Homo sapiens, Monocyte, read-out: EC50 TNF, LPS-stimulated human monocytes, TNFα
[4] = IC50 HTRF, Cot HTRF (TR-FRET) biochemical assay
[5] = Homo sapiens, Monocyte, read-out: EC50 TNF, LPS-stimulated human monocytes, TNFα TR-FRET
[6] = IC50 HTRF, Cot HTRF (TR-FRET KinEASE) biochemical assay, 400 μM ATP
[7] = read-out: EC50 TNF, LPS-stimulated human monocytes, TNFα TR-FRET
[8] = read-out: IC50 HTRF, Cot HTRF (TR-FRET KinEASE) biochemical assay, 400 μM ATP

Chain of Human Cot (P41279 30-397): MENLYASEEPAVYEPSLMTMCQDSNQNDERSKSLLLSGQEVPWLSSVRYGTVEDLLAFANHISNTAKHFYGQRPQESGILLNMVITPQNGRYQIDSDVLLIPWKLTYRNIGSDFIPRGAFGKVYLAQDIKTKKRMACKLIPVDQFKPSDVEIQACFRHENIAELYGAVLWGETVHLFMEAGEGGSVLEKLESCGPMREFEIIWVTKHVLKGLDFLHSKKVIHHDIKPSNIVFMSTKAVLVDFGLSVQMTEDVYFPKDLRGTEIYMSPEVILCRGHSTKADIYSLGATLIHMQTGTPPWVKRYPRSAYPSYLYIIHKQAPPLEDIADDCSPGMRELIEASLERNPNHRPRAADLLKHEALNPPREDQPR

Row | Structure (SMILES) | EC50 (TNFα; [3]) | IC50 (Human Cot; [4]) | also measured
1 | Cn1ncc2cccc([C@H](Nc3cc(C#N)c4ncc(C#N)c(NCC(C)(C)C)c4c3)c3cn(C4(C(F)F)CC4)nn3)c21 [Example 605] |  |  | EC50 (TNFα; [1]): 0.03 µM; IC50 (Human Cot; [2]): 0.003 µM
2 | CC(C)(C)N1CCC(n2cc([C@@H](Nc3cc(Cl)c4ncc(C#N)c(Nc5ccc(Cl)c(Cl)c5F)c4c3)c3csc4c3CCN(C3COC3)C4)nn2)CC1 [Example 223, (S)-6-(((1-(1-(tert-butyl)piperidin-4-yl)-1H-1,2,3-triazol-4-yl)(6-(oxetan-3-yl)-4,5,6,7-tetrahydrothieno[2,3-c]pyridin-3-yl)methyl)amino)-8-chloro-4-((3,4-dichloro-2-fluorophenyl)amino)quinoline-3-carbonitrile] | 0.094 µM | 0.007 µM | 
3 | Cc1nc(F)ccc1[C@@H](Nc1cc(Cl)c2ncc(C#N)c(NC3[C@H]4CCC[C@H]34)c2c1)c1cn(C2(C(F)(F)F)CC2)nn1 (stereo partly drawn) [Example 607, 4-(((lR,5S)-bicyclo[3.1.0]hexan-6-yl)amino)-8-chloro-6-(((S)-(6-fluoro-2-methylpyridin-3-yl)(1-(1-(trifluoromethyl)cyclopropyl)-1H-1,2,3-triazol-4-yl)methyl)amino)quinoline-3-carbonitrile] |  |  | EC50 (TNFα; [1]): 0.225 µM; IC50 (Human Cot; [2]): 0.021 µM
4 | COc1c([C@@H](Nc2cc(C#N)c3ncc(C#N)c(NCC(C)(C)C)c3c2)c2ccc(F)nc2C)nnn1C1(C(F)F)CC1 [Example 964, (S)-6-(((1-(1-(difluoromethyl)cyclopropyl)-5-methoxy-1H-1,2,3-triazol-4-yl)(6-fluoro-2-methylpyridin-3-yl)methyl)amino)-4-(neopentylamino)quinoline-3,8-dicarbonitrile] |  |  | EC50 (TNFα; [5]): 0.105 µM; IC50 (Human Cot; [6]): 0.003 µM
5 | Cn1ccc2c([C@H](Nc3cc(Cl)c4ncc(C#N)c(NCC(C)(C)C)c4c3)c3cn(C45CCC(CC4)CC5)nn3)cccc2c1=O [Example 939, (S)-6-(((1-(bicyclo[2.2.2]octan-1-yl)-1H-1,2,3-triazol-4-yl)(2-methyl-1-oxo-1,2-dihydroisoquinolin-5-yl)methyl)amino)-8-chloro-4-(neopentylamino)quinoline-3-carbonitrile] |  |  | EC50 (TNFα; [5]): 0.104 µM; IC50 (Human Cot; [6]): 0.018 µM
6 | CC(C)n1cc([C@@H](Nc2cc(Cl)c3ncc(C#N)c(Nc4ccc(F)c(Cl)c4)c3c2)c2csc3c2CCN(C)C3)nn1 [Example 345, (S)-8-chloro-4-((3-chloro-4-fluorophenyl)amino)-6-(((1-isopropyl-1H-1,2,3-triazol-4-yl)(6-methyl-4,5,6,7-tetrahydrothieno[2,3-c]pyridin-3-yl)methyl)amino)quinoline-3-carbonitrile] | 0.073 µM | 0.003 µM | 
7 | [2H]C(Nc1cc(Cl)c2ncc(C#N)c(NCC(C)(C)C)c2c1)(c1cn(C2CC2)nn1)c1ccc(F)nc1F (centres unmarked) [Example 103, 8-chloro-6-(((1-cyclopropyl-1H-1,2,3-triazol-4-yl)(2,6-difluoropyridin-3-yl)methyl-d)amino)-4-(neopentylamino)quinoline-3-carbonitrile] | 0.133 µM | 0.003 µM | 
8 | CC[C@@H](Nc1c(C#N)cnc2c(C#N)cc(N[C@H](c3cn(C4CC4)nn3)c3cccc4ncsc34)cc12)c1ccccc1 [Example 411, 6-(((S)-benzo[d]thiazol-7-yl(1-cyclopropyl-1H-1,2,3-triazol-4-yl)methyl)amino)-4-(((R)-1-phenylpropyl)amino)quinoline-3,8-dicarbonitrile] | 0.076 µM | 0.005 µM | 
9 | Cc1nc(C#N)ccc1[C@H](Nc1cc(C#N)c2ncc(C#N)c(NCC(C)(C)C)c2c1)c1cn(C2(C(F)(F)F)CC2)nn1 [Example 830, (S)-6-(((6-cyano-2-methylpyridin-3-yl)(1-(1-(trifluoromethyl)cyclopropyl)-1H-1,2,3-triazol-4-yl)methyl)amino)-4-(neopentylamino)quinoline-3,8-dicarbonitrile] |  |  | EC50 (TNFα; [5]): 0.384 µM; IC50 (Human Cot; [6]): 0.016 µM
10 | CC(C)(C)CNc1c(C#N)cnc2c(C#N)cc(N[C@H](c3cn(C4(C(F)(F)F)CC4)nn3)c3ccc(F)c4cnccc34)cc12 [Example 626] |  |  | EC50 (TNFα; [1]): 0.035 µM; IC50 (Human Cot; [2]): 0.005 µM
11 | CC(C)(C)CNc1c(C#N)cnc2c(C#N)cc(N[C@H](c3cn(C4(C(F)(F)F)CC4)nn3)c3cccc4c(=O)n(C(F)F)ccc34)cc12 [Example 889, (S)-6-(((2-(difluoromethyl)-1-oxo-1,2-dihydroisoquinolin-5-yl)(1-(1-(trifluoromethyl)cyclopropyl)-1H-1,2,3-triazol-4-yl)methyl)amino)-4-(neopentylamino)quinoline-3,8-dicarbonitrile] |  |  | EC50 (TNFα; [5]): 0.104 µM; IC50 (Human Cot; [6]): 0.009 µM
12 | CC(C)(C)CNc1c(C#N)cnc2c(Cl)cc(N[C@H](c3cn(C4CC4)nn3)c3ccc(F)nc3Cl)cc12 [Example 436, (S)-8-chloro-6-(((2-chloro-6-fluoro-pyridin-3-yl)(1-cyclopropyl-1H-1,2,3-triazol-4-yl)methyl)amino)-4-(neo-pentylamino)quinoline-3-carbonitrile] | 0.289 µM | 0.005 µM | 
13 | COc1nccc2c([C@H](Nc3cc(Cl)c4ncc(C#N)c(NCC(C)(C)C)c4c3)c3cn(C4(C)CC4)nn3)cccc12 [Example 913, (S)-8-chloro-6-(((1-methoxylsoquinolin-5-yl)(1-(1-methylcyclopropyl)-1H-1,2,3-triazol-4-yl)methyl)amino)-4-(neopentylamino)quinoline-3-carbonitrile] |  |  | EC50 (TNFα; [7]): 0.086 µM; IC50 (Human Cot; [8]): 0.006 µM
14 | Cn1nccc1[C@H](Nc1cc(Cl)c2ncc(C#N)c(Nc3cnc(F)c(F)c3)c2c1)c1c[nH]nn1 [Example 165, (S)-8-chloro-4-((5,6-difluoropyridin-3-yl)amino)-6-(((1-methyl-1H-pyrazol-5-yl)(1H-1,2,3-triazol-4-yl)methyl)amino)quinoline-3-carbonitrile] | 2.37 µM | 0.009 µM | 
15 | N#Cc1cnc2c(Cl)cc(N[C@@H](c3cccnc3)c3cn(C4COC4)nn3)cc2c1NC1CCOCC1 [Example 201, (S)-8-chloro-6-(((1-(oxetan-3-yl)-1H-1,2,3-triazol-4-yl)(pyridin-3-yl)methyl)amino)-4-((tetrahydro-2H-pyran-4-yl)amino)quinoline-3-carbonitrile] | 5.59 µM | 0.056 µM | 
16 | Cc1ccc2c([C@H](Nc3cc(C#N)c4ncc(C#N)c(NCC(C)(C)C)c4c3)c3cn(C4(C)CC4)nn3)cccc2n1 [Example 902] |  |  | EC50 (TNFα; [7]): 0.036 µM; IC50 (Human Cot; [8]): 0.003 µM
17 | CCN1CCC(n2cc([C@H](c3cccnc3)N(CC)c3cc(Cl)c4ncc(C#N)c(Nc5ccc(F)c(Cl)c5)c4c3)nn2)CC1 [Example 368, (S)-8-chloro-4-((3-chloro-4-fluorophenyl)amino)-6-(ethyl((1-(1-ethylpiperidin-4-yl)-1H-1,2,3-triazol-4-yl)(pyridin-3-yl)methyl)-amino)quinoline-3-carbonitrile] | 6.3 µM | 0.649 µM | 
18 | [2H][C@](Nc1cc(Cl)c2ncc(C#N)c(Nc3cccc(Cl)c3OC)c2c1)(c1ccc(F)nc1)c1cn(C2CC2)nn1 [Example 94, (S)-8-chloro-4-((3-chloro-2-methoxyphenyl)amino)-6-(((1-cyclopropyl-1H-1,2,3-triazol-4-yl)(6-fluoropyridin-3-yl)methyl-d)amino)quinoline-3-carbonitrile] | 0.13 µM | 0.002 µM | 
19 | Cc1nc(F)ccc1[C@H](Nc1cc(C#N)c2ncc(C#N)c(NCC(C)(C)C(F)(F)F)c2c1)c1cn(C2(C(F)F)CC2)nn1 [Example 841] |  |  | EC50 (TNFα; [7]): 0.041 µM; IC50 (Human Cot; [8]): 0.002 µM
20 | Cc1nnc(C2(n3cc([C@@H](Nc4cc(C#N)c5ncc(C#N)c(NCC(C)(C)C)c5c4)c4ccc(F)nc4C)nn3)CC2)o1 [Example 907, (S)-6-(((6-fluoro-2-methylpyridin-3-yl)(1-(1-(5-methyl-l,3,4-oxadiazol-2-yl)cyclopropyl)-1H-1,2,3-triazol-4-yl)methyl)amino)-4-(neopentylamino)quinoline-3,8-dicarbonitrile] |  |  | EC50 (TNFα; [7]): 0.051 µM; IC50 (Human Cot; [8]): 0.004 µM
21 | CC(C)(C)N1CCC(n2cc([C@@H](Nc3cc(Cl)c4ncc(C#N)c(Nc5ccc(F)c(Cl)c5)c4c3)C3=CCOCC3)nn2)CC1 [Example 264, (S)-6-(((1-(1-(tert-butyl)piperidin-4-yl)-1H-1,2,3-triazol-4-yl)(3,6-dihydro-2H-pyran-4-yl)methyl)amino)-8-chloro-4-((3-chloro-4-fluorophenyl)-amino)quinoline-3-carbonitrile] | 0.07 µM | 0.002 µM | 
22 | CC(C)(C)CNc1c(C#N)cnc2c(C#N)cc(N[C@H](c3cn(C4(C(F)(F)F)CC4)nn3)c3cccc4c3CNC4)cc12 [Example 451, (S)-6-((isoindolin-4-yl(1-(1-(trifluoro-methyl)cyclopropyl)-1H-1,2,3-triazol-4-yl)methyl)amino)-4-(neopentylamino)-quinoline-3,8-dicarbonitrile] | 0.138 µM | 0.003 µM | 
23 | CC(C)(C)CNc1c(C#N)cnc2c(C#N)cc(N[C@H](c3cn(CC(F)(F)F)nn3)c3cccc4ncsc34)cc12 [Example 460, (S)-6-((benzo[d]thiazol-7-yl(1-(2,2,2-trifluoroethyl)-1H-1,2,3-triazol-4-yl)methyl)amino)-4-(neopentylamino)-quinoline-3,8-dicarbonitrile] | 0.156 µM | 0.005 µM | 
24 | CC(C)(C)CNc1c(C#N)cnc2c(Cl)cc(N[C@H](c3cn(C4CC4)nn3)c3cccn4cncc34)cc12 [Example 446, (S)-8-chloro-6-(((1-cyclopropyl-1H-1,2,3-triazol-4-yl)(imidazo[1,5-a]pyridin-8-yl)methyl)amino)-4-(neopentylamino)-quinoline-3-carbonitrile] | 0.156 µM | 0.003 µM | 
25 | Cc1nc(F)ccc1[C@H](Nc1cc(Cl)c2ncc(C#N)c(N[C@@H]3CCOCC3(C)C)c2c1)C1=CN(C2(C3CC3)CC2)NN1 [Example 669] |  |  | EC50 (TNFα; [1]): 0.007 µM; IC50 (Human Cot; [2]): 0.001 µM
